This is an account of results in patent US9850283B2, “Macrocyclic inhibitors of the PD-1/PD-L1 and CD80(B7-1)/PD-L1 protein/protein interactions” (BRISTOL-MYERS SQUIBB COMPANY, priority 2013, dated 2017).

The target of one assay is T1, Human PD-L1/PD-1 (Homo sapiens, UniProt Q9NZQ7).
T1 construct: made in house; host or cells: HEK293T
The assay can be described thus: HTRF PD-1-Ig/PD-L1-His binding assay (human PD-L1). In outline: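 HTRF read-out: Eu cryptate anti-Ig mAb 1 nM final, APC anti-His mAb 20 nM final, added over the binding reaction. Proteins were PD-1-Ig and PD-L1-His ectodomain fusions. Buffer was dPBS, 0.1% BSA, 0.05% Tween-20.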

A further assay addresses CMV-specific T cells (Homo sapiens, UniProt Q9NZQ7). The assay can be described thus: CMV-specific T cell function assay (IFNγ secretion, ELISA). In kind it is cell-based. On the procedure: CMV-specific T Cell Function Assay. […] AIM-V medium (Life Technologies, Grand Island, N.Y.) supplemented with 10% heat-inactivated fetal bovine serum (FBS, Sigma, St Louis, Mo.) was used at a total volume of 200 µL/well in triplicate. The cells were cultured for 4 days at 37° C., 5% CO2 at which time culture supernatant was harvested for determination of secreted IFNγ by ELISA (OptEIA hIFNγ ELISA Kit, BD Biosciences, San Jose, Calif.).

Assay [1] deals with T2, LK35.2-hPD-L1 cells / PE-labeled PD-1-Ig (Homo sapiens, UniProt Q9NZQ7).
T2 construct: expressed in transfected cells; host or cells: LK35.2 mouse B cell line
The assay can be described thus: LK35.2-hPD-L1 cell binding high-content screening assay. In kind it is cell-based. In outline:
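Fluorescent PD-1-Ig binding to PD-L1-expressing LK35.2 cells, imaged after washing. Conditions: 1 nM PE-PD-1-Ig, 37 °C, 1 h, RPMI with 10% fetal calf serum.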

The mark [2] stands for this setting: read-out: CMV Recall EC50 value.
Where [3] appears, read: cell line of CBA not given (LK35.2-hPD-L1 or 293T-hPD-L1), read-out: CBA IC50 value.

Like-named read-outs stand apart in the source and are kept apart here. Starred links: 1 amine or outer side, 2 acyl side, 3 side chain; linkers in the order of their positions; H or OH if unused. Positions of bridges follow the written chain, without caps; N, C: chain ends. Non-standard residues stand in square brackets, D forms with d. Residues, ends and D or L forms follow the SMILES beside them. ξ: configuration not given here. X3 = O=C([C@@H]1C[C@@H](Cc2ccc(F)cc2)CN1[*:1])[*:2]; Phe(3,4,5-F3) = N[C@@H](Cc1cc(F)c(F)c(F)c1)C(=O)O; Pro(4R-NH2) = N[C@H]1CN[C@H](C(=O)O)C1; d(cisHyp) = O=C(O)[C@H]1C[C@@H](O)CN1; Hyp = O=C(O)[C@@H]1C[C@@H](O)CN1; NMeF = CN[C@@H](Cc1ccccc1)C(=O)O; dHyp = O=C(O)[C@H]1C[C@H](O)CN1; dNMeNle = CCCC[C@@H](NC)C(=O)O; NMeNle = CCCC[C@H](NC)C(=O)O; Pip = O=C(O)[C@@H]1CCCCN1; dPip = O=C(O)[C@H]1CCCCN1; NMeA = CN[C@@H](C)C(=O)O; Dab = NCC[C@H](N)C(=O)O; ξP = O=C(O)C1CCCN1

Sequence of CMV-specific T cells (Q9NZQ7 19-290): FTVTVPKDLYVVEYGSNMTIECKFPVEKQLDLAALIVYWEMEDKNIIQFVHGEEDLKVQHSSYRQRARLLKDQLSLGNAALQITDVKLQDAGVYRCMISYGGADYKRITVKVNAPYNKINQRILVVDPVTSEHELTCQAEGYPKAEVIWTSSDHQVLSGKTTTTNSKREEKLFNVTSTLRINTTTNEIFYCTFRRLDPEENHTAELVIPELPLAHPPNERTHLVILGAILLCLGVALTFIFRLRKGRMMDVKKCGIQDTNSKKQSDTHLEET
T2 sequence (Q9NZQ7 19-290): as above
T1 sequence (Q9NZQ7 with tags, fused parts or gaps): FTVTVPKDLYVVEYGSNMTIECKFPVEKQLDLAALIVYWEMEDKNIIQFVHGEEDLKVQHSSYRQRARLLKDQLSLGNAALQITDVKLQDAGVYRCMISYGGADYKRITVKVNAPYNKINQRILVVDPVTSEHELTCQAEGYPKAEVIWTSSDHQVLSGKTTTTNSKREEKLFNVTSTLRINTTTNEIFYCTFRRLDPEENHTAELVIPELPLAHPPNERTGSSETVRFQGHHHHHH

`CCCC[C@@H]1C(=O)N(C)[C@H](CCCC)C(=O)N[C@@H](C)C(=O)N[C@@H](C(=O)NCC(N)=O)CSCC(=O)N[C@@H](Cc2ccc(O)cc2)C(=O)N2CCCC2C(=O)N[C@H](CC(=O)O)C(=O)N2CCC[C@H]2C(=O)N[C@H](Cc2c[nH]cn2)C(=O)N[C@@H](CCC(=O)O)C(=O)N2CCCC2C(=O)N[C@H](Cc2c[nH]c3ccccc23)C(=O)N[C@@H](CCN)C(=O)N[C@@H](Cc2c[nH]c3ccccc23)C(=O)N1C` (stereo partly shown) [Example 1215] ({CH2CO}-Y[ξP][dD]P[dH]E[ξP][dW][Dab]W[dNMeNle][dNMeNle]A[dC]G-NH2; thioether N-14): the IC50 at Human PD-L1/PD-1 (read-out: HTRF IC50 value) was 50.9 nM; in assay [1] (setting [3]) it was 92.5 nM. On CMV-specific T cells (setting [2]), the EC50 was found to be 508 nM.

In the case of `CCCC[C@H]1C(=O)N(C)[C@@H](CCCC)C(=O)N[C@@H](CCCNC(=N)N)C(=O)N[C@H](C(=O)NCC(N)=O)CSCC(=O)N[C@@H](Cc2ccc(O)cc2)C(=O)N2CCCC[C@H]2C(=O)N[C@@H](CC(N)=O)C(=O)N2CCC[C@H]2C(=O)N[C@@H](Cc2cnc[nH]2)C(=O)N[C@@H](CCC(=O)O)C(=O)N2C[C@H](O)C[C@H]2C(=O)N[C@@H](Cc2c[nH]c3ccccc23)C(=O)N[C@@H](CO)C(=O)N[C@@H](Cc2c[nH]c3ccccc23)C(=O)N1C` [Example 1237] ({CH2CO}-Y[Pip]NPHE[Hyp]WSW[NMeNle][NMeNle]RCG-NH2; thioether N-14), the figures for the IC50 (at Human PD-L1/PD-1 (read-out: HTRF IC50 value); in assay [1] (setting [3])) were 16.5 nM and 4.92 nM, respectively. For the same compound, the EC50 on CMV-specific T cells (setting [2]) stood at 21.9 nM.

For `CCCC[C@H]1C(=O)N2CCC[C@@H]2C(=O)N2C[C@H](N)C[C@H]2C(=O)N[C@@H](C(C)C)C(=O)N(C)[C@@H](Cc2ccccc2)C(=O)N[C@@H](Cc2ccc(O)cc2)C(=O)N2CCCC[C@@H]2C(=O)N[C@@H](Cc2c[nH]c3ccccc23)C(=O)N[C@@H](Cc2ccc(O)cc2)C(=O)N[C@@H](CC(C)C)C(=O)N[C@H](C(=O)NCC(N)=O)CSCC(=O)N[C@@H](Cc2cc(F)c(F)c(F)c2)C(=O)N(C)[C@@H](Cc2ccccc2)C(=O)N1C` [Example 3194] ({CH2CO}-[Phe(3,4,5-F3)][NMeF][NMeNle][dP][Pro(4R-NH2)]V[NMeF]Y[dPip]WYLCG-NH2; thioether N-13), the IC50 at Human PD-L1/PD-1 (read-out: HTRF IC50 value) worked out at 4.39 nM; in assay [1] (setting [3]), 1.15 nM. In addition, the EC50 on CMV-specific T cells (setting [2]) turned out to be 25.2 nM.

As to `CCCC[C@H]1C(=O)N2C[C@H](O)C[C@@H]2C(=O)N[C@@H](CC(=O)O)C(=O)N[C@@H](C(C)C)C(=O)N(C)[C@@H](Cc2ccccc2)C(=O)N[C@@H](Cc2ccc(O)cc2)C(=O)N2CCCC[C@@H]2C(=O)N[C@@H](Cc2c[nH]c3ccccc23)C(=O)N[C@@H](Cc2ccc(O)cc2)C(=O)N[C@@H](CC(C)C)C(=O)N[C@H](C(=O)NCC(N)=O)CSCC(=O)N[C@@H](Cc2cc(F)c(F)c(F)c2)C(=O)N(C)[C@@H](Cc2ccccc2)C(=O)N1C` [Example 3590] ({CH2CO}-[Phe(3,4,5-F3)][NMeF][NMeNle][d(cisHyp)]DV[NMeF]Y[dPip]WYLCG-NH2; thioether N-13), the IC50 at Human PD-L1/PD-1 (cluster symbol, read-out: HTRF IC50 cluster) was 0.385 to 6.74 nM; in assay [1] (cell binding assay, cell line not given, cluster symbol, read-out: CBA IC50 cluster) it was 0.158 to 4.71 nM. On CMV-specific T cells (read-out: CMV Recall EC50 cluster, cluster symbol), the EC50 amounted to 1000 nM.

As for `CCCC[C@H]1C(=O)N2C[C@@H](O)C[C@@H]2C(=O)N[C@@H](CC(=O)O)C(=O)N[C@@H](C(C)C)C(=O)N(C)[C@@H](Cc2ccccc2)C(=O)N[C@@H](Cc2ccc(O)cc2)C(=O)N2CCCC[C@@H]2C(=O)N[C@@H](Cc2c[nH]c3ccccc23)C(=O)N[C@@H](Cc2ccc(O)cc2)C(=O)N[C@@H](CC(C)C)C(=O)N[C@H](C(=O)NCC(N)=O)CSCC(=O)N[C@@H](Cc2cc(F)c(F)c(F)c2)C(=O)N(C)[C@@H](Cc2ccccc2)C(=O)N1C` [Example 3592] ({CH2CO}-[Phe(3,4,5-F3)][NMeF][NMeNle][dHyp]DV[NMeF]Y[dPip]WYLCG-NH2; thioether N-13), the IC50 was 4 nM on Human PD-L1/PD-1 (value given instead of cluster, read-out: HTRF IC50 value) and 0.158 nM in assay [1] (cell binding assay, cell line not given, value given instead of cluster, read-out: CBA IC50 value). Also, the EC50 at CMV-specific T cells (value given instead of cluster, read-out: CMV Recall EC50 value) was determined as 0.62 nM.

Consider `CCCC[C@H]1C(=O)N(C)[C@@H](CCCC)C(=O)N[C@@H](CCN)C(=O)N[C@H](C(=O)NCC(N)=O)CSCC(=O)N[C@@H](Cc2ccc(O)cc2)C(=O)N(C)[C@@H](C)C(=O)N[C@@H](CC(N)=O)C(=O)N2CCC[C@H]2C(=O)N[C@@H](Cc2c[nH]cn2)C(=O)N[C@@H](CCC(=O)O)C(=O)N2C[C@H](Cc3ccc(F)cc3)C[C@H]2C(=O)N[C@@H](Cc2c[nH]c3ccccc23)C(=O)N[C@@H](CCN)C(=O)N[C@@H](Cc2c[nH]c3ccccc23)C(=O)N1C` [Example 13011] ({CH2CO}-Y[NMeA]NPHE[X3]W[Dab]W[NMeNle][NMeNle][Dab]CG-NH2; thioether N-14), for which, on CMV-specific T cells (numeric value, read-out: CMV Recall EC50 values), the EC50 worked out at 38.3 nM.
